What was measured:
[1] = test system: wild-type T. gondii parasites; parameters: method as in PMID 20436472, PMID 20485436; conditions: cited from earlier work
[2] = molecular target: recombinant P. falciparum cGMP-dependent protein kinase (PfPKG) (Plasmodium falciparum, UniProt Q8I719); experiment: PfPKG in vitro kinase activity assay (luminescence); assay type: biochemical; conditions: 2 µM ATP, 20 µM cGMP, 2 h at 30°C; read-out: IC50 (SD) for PfPKG
Experimental: Compound efficacy against recombinant P. falciparum cGMP-dependent protein kinase (PfPKG) was determined using a novel nonradioactive and high-throughput assay. This assay evaluates protein kinase activity by measuring changes in […] ATP concentration via luminescence after PfPKG enzyme phosphorylation of a peptide substrate, PKCtide ([…]) (SignalChem, Richmond, BC, Canada). The in vitro kinase assay was set up with 26 µM PKCtide, 30 nM PfPKG, and 20 µM cGMP in a buffered solution containing 20 mM β-glycerol phosphate, 20 mM MgCl2, 25 mM HEPES (pH 7.5) (KOH), 0.1% bovine serum albumin (BSA), and 2 mM DTT ([37]). The reaction was initiated with addition of 2 µM ATP. The reaction mixture was incubated at 30°C and 90-rpm agitation for 2 h. Reaction wells with no PfPKG, no peptide substrate, and no cGMP were included in each assay plate as internal negative controls.

recombinant PfCDPK1 WT [3] = molecular target: T1, recombinant PfCDPK1 WT (Plasmodium falciparum, UniProt P62344); experiment: BKI library screening, in vitro kinase assay (KinaseGlo); assay type: biochemical; conditions: 10 µM ATP, 90 min at 30°C; two independent experiments in triplicate
T1 construct: made in house; host or cells: Escherichia coli BLR(DE3)pLysS, pGEX4T1
T1 sequence (P62344 whole entry): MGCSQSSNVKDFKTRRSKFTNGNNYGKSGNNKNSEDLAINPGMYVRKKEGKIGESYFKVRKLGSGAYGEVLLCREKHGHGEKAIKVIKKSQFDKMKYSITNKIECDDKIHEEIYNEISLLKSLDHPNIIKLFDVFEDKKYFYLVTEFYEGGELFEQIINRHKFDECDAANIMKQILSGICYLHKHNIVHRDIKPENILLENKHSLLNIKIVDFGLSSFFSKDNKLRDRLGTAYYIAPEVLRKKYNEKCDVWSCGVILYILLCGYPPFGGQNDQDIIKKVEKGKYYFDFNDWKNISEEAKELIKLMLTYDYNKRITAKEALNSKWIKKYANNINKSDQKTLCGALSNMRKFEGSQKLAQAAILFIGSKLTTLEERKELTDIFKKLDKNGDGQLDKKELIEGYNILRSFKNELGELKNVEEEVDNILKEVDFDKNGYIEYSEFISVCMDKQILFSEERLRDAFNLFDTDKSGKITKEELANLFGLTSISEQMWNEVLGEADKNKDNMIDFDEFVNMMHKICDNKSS
Experimental: (§1) Recombinant PfCDPK1 WT and PfCDPK1 T145M were used in the in vitro kinase assay to calculate the IC50s for the library of bumped kinase inhibitors. Thirty-one BKIs belonging to the pyrazolopyrimidine scaffold were screened ([18][–][21]). Protein kinase activity of recombinant enzymes was assayed using 20 µM synthetic peptide substrate […] […] These reactions were performed in a buffered solution containing 1 mM EGTA (pH 7.2), 10 mM MgCl2, 20 mM HEPES (pH 7.5), 0.1% BSA, and enzyme activation reagent containing 2 mM CaCl2. The reactions were initiated with addition of 10 µM ATP, and the reaction mixtures were incubated for 90 min at 30°C. […] The KinaseGlo (Promega, Madison, WI) luminescence-based assay, in which luminescence is inversely related to kinase activity and directly related to […], was used as previously described ([21]).

recombinant PfCDPK1 WT [4] = experiment: as above; assay type: biochemical, Plasmodium falciparum; conditions: PfCDPK1 WT vs T145M recombinant enzymes
Experimental: as §1

CDPK1 T145M parasites = experiment: Asexual parasite growth inhibition (SYBR green I assay); assay type: cell-based, Plasmodium falciparum; conditions: BKIs
Experimental: The parasites were electroporated as described earlier ([39]). Briefly, the ring-stage parasites at ~5% parasitemia were electroporated with 50 μg each of pL6CK1Met or pL6CK1Ser plasmid and pUF1 plasmid with the settings of 0.31 kV, 960 μF, and maximum capacitance on a Bio-Rad Gene Pulser II. WR99210 and DSM267 ([40]) were applied at the concentrations of 2 and 150 nM, respectively, after 24 h of transfection. The transgenic PfCDPK1 T145M parasites were cloned by limiting dilution in a 96-well plate. The PfCDPK1 gene sequence was amplified using primers ck1f1 (5′ […] 3′) and ck1r3wt (5′ […] 3′) specific for the region outside the homology arm of the plasmid, and the desired mutation was confirmed by DNA sequencing.
Asexual parasites were synchronized for two consecutive cycles by sorbitol treatment ([41]) and set up at 0.2% trophozoite stage (30 to 36 h postinvasion) in a 96-well plate. The growth progression was monitored for 7 days, and the growth rate of the parasites was calculated by sampling the culture every 24 h and measuring the fluorescence readout using the SYBR green I assay as described earlier ([42], [43]).

[5] = molecular target: T2, recombinant PfCDPK1 T145M (Plasmodium falciparum, UniProt P62344, T145M); experiment: BKI library screening, in vitro kinase assay (KinaseGlo); assay type: biochemical; conditions: methionine gatekeeper mutant T145M; 10 µM ATP, 90 min at 30°C; read-out: PfCDPK1Met IC50
T2 construct: Full-length CDPK1 WT and five mutant proteins with different substitutions at the gatekeeper position (residue 145) were expressed in E. coli; made in house; host or cells: Escherichia coli BLR(DE3)pLysS, pGEX4T1
T2 sequence (P62344 whole entry T145M): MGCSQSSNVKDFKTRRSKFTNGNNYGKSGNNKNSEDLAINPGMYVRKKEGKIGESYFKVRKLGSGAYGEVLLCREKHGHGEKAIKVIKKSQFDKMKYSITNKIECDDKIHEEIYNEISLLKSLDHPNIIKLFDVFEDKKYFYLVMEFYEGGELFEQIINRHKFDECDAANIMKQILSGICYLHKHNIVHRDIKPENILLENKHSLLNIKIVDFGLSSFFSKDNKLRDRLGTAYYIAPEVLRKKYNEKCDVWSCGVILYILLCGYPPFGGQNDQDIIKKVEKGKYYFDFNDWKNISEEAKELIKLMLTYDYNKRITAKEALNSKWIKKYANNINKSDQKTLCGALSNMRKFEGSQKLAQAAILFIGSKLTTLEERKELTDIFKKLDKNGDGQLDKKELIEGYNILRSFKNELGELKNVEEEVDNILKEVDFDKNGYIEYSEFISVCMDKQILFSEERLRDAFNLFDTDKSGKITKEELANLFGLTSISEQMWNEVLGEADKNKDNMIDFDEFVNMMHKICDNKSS
Experimental: as §1

[6] = test system: wild-type parasites (P. falciparum NF54); experiment: Asexual parasite growth inhibition (SYBR green I assay); assay type: cell-based, Plasmodium falciparum; conditions: BKIs

recombinant P. falciparum cGMP-dependent protein kinase (PfPKG), sequence (Q8I719 whole entry): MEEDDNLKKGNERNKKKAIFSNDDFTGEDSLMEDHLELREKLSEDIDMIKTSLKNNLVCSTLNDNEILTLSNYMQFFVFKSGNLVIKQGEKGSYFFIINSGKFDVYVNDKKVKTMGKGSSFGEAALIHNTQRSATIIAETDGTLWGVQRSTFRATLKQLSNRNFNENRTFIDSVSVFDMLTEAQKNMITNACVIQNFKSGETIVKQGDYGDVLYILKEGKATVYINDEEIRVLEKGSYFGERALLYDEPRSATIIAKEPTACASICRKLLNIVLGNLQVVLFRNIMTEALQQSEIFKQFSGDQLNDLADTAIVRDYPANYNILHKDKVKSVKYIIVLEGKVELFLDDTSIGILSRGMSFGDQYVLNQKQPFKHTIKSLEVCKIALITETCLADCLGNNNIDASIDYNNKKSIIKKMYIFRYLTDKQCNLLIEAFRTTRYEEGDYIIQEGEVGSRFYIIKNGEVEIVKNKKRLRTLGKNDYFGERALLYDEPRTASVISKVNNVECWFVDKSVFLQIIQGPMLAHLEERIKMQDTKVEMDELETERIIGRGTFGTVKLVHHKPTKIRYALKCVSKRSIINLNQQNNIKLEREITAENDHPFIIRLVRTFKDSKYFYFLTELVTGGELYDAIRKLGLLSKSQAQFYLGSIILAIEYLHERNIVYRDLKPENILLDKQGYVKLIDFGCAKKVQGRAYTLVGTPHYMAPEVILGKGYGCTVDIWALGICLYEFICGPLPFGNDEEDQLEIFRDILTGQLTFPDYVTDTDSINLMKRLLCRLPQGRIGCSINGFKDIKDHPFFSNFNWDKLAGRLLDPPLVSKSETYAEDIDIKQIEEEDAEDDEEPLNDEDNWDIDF

Structure (SMILES)	effect on microneme secretion and invasion of host cells [1]	IC50 [2] [nM]	IC50 (recombinant PfCDPK1 WT [3]) [nM]	fold-greater effect in vitro on wild-type enzyme than on methionine mutant (recombinant PfCDPK1 WT [4]) [fold]	EC50 (CDPK1 T145M parasites) [nM]	IC50 [5] [nM]	EC50 [6] [nM]
Cc1cccc(Cc2nn(C(C)(C)C)c3ncnc(N)c23)c1 [3MBPP1]	block in microneme secretion and subsequent invasion of host cells						
CCOc1ccc2cc(-c3nn(CC4CCN(C)CC4)c4ncnc(N)c34)ccc2c1 [compound 1294]		262	162	10	6970	> 2000	10900
CCOc1ccc2cc(-c3nn(CC4CCN(C)CC4)c4ncnc(N)c34)ccc2n1 [compound 1369]		> 2000	438			> 2000	
